System: A673 Ewing sarcoma viability, CellTiter-Glo ATP luminescence, 72 h
Assay: A673 Ewing sarcoma viability loss – cell-based, CellTiter-Glo luminescence, cherry-pick retest, confirmation (AID 720587)

Row | Compound | AC35
1 | Cc1nc(N)nc(N)c1-c1ccc(Cl)c(Cl)c1 | 0.928 µM
2 | BrC(=C\c1ccccc1)/C=N/n1cnnc1 | 2.23 µM
3 | Cc1ccc(/C=C2\SC(=S)N(CCCC(=O)NNC(=O)c3ccccc3O)C2=O)cc1 | 11.3 µM
4 | CCNC(=O)c1cc2c(c(-c3cccc(-c4cccc(OC)c4)c3)n1)[C@H](CCO)N([S@@](=O)C(C)(C)C)C2 | 5.13 µM
5 | CCc1ccc(/C=C2\SC(=S)N(CCCC(=O)N3CCN(C)CC3)C2=O)cc1 | 13.1 µM
6 | COc1cc(-c2cnc3c(NC=O)cc(-c4cccc(NC(C)=O)c4)cn23)cc(OC)c1OC | 0.371 µM
7 | C[C@H](CO)N1C[C@H](C)[C@H](CN(C)Cc2ccc(C(=O)Nc3ccccc3N)cc2)Oc2ccc(NS(=O)(=O)c3cccs3)cc2C1=O | 14.5 µM
8 | COc1cc(-c2noc(C)c2C#Cc2nccn2C)cc(OC)c1OC | 15.9 µM
9 | O=C(Nc1ccccc1F)N1CCCCN2[C@H](CO)[C@H](c3ccc(/C=C/c4ccccc4)cc3)[C@H]2C1 | 3.64 µM
10 | CCc1nc(N)nc(N)c1-c1ccc(Cl)cc1 | 8.71 µM
11 | C[C@@H]1CN([C@@H](C)CO)S(=O)(=O)c2ccc(C#CC(C)(C)O)cc2O[C@H]1CN(C)Cc1ccc(-c2ccccc2)cc1 | 5.75 µM
12 | COc1ccc(S(=O)(=O)Nc2ccc3c(c2)C(=O)N([C@H](C)CO)C[C@@H](C)[C@@H](CN(C)CC2CCCCC2)OCCCC[C@H](C)O3)cc1 | 12.3 µM
13 | COC(=O)C[C@@H]1CC[C@@H]2[C@@H](COc3ccc(NC(=O)Nc4cccc(C#N)c4)cc3C(=O)N2C)O1 | 9.17 µM
14 | CN(C)c1ccc(N=Nc2nc3ccccc3n2C)cc1 | 8.63 µM
15 | COC(=O)C[C@H]1CC[C@H]2[C@H](COc3ccc(NC(=O)Nc4cccc(Cl)c4)cc3C(=O)N2C)O1 | 13.6 µM
16 | CCN1/C(=C/C=C/c2oc3ccc(-c4ccccc4)cc3[n+]2CC)Oc2ccc(-c3ccccc3)cc21 | 1.98 µM
17 | CCN1/C(=C/C(C)=C/c2sc3ccccc3[n+]2CC)Sc2ccccc21 | 1.36 µM
18 | Oc1c(Cl)cc(Cl)c2cccnc12 | 5.58 µM
19 | C[C@@H]1CCCCO[C@H](CN(C)Cc2ccc(C(F)(F)F)cc2)[C@H](C)CN([C@H](C)CO)C(=O)c2cc(NC(=O)CCCN(C)C)ccc2O1 | 7.73 µM
20 | O=C(/C=C/c1cc(Br)ccc1O)c1ccco1 | 12.3 µM
21 | Cc1ccc(S(=O)(=O)Nc2ccc3c(c2)C(=O)N([C@H](C)CO)C[C@@H](C)[C@@H](CN(C)Cc2ccc(C(=O)Nc4ccccc4N)cc2)O3)cc1 | 11.9 µM
22 | C[C@@H]1CN([C@@H](C)CO)C(=O)c2cc(N(C)C)ccc2O[C@H]1CN(C)Cc1ccc(C(=O)Nc2ccccc2N)cc1 | 13.2 µM

Row | Compound | AC35
23 | O=C(O)c1ccccc1C(=O)Nc1ccc(Oc2ccc3ccccc3c2)cc1 | 15.6 µM
24 | CO[C@H]1CN(C)C(=O)c2ccc(NC(=O)c3ccc(-c4ccccc4)cc3)cc2OC[C@H](C)NC[C@H]1C | 10.5 µM
25 | Cc1c(Cl)cccc1NC(=O)CCC(=O)N/N=C/c1ccc[nH]1 | 6.52 µM
26 | CO[C@H]1CN(C)C(=O)c2cc(NC(=O)c3ccc(Oc4ccccc4)cc3)ccc2OC[C@H](C)NC[C@@H]1C | 12.3 µM
27 | C[C@@H]1CN([C@@H](C)CO)C(=O)c2cccc(NS(=O)(=O)c3ccccc3)c2O[C@@H]1CN(C)Cc1ccc(C(=O)Nc2ccccc2N)cc1 | 8.86 µM
28 | O=C1NC(=O)N(Cc2ccco2)C(=O)/C1=C/C=C/c1ccco1 | 5.61 µM
29 | CN(C)c1ccc(C=c2c3ccccc3n3c2c2c([n+]3C)CCCC2)cc1 | 2.82 µM
30 | CCCCCCN(C(=O)CCCCCN1C(=O)NC(c2ccc(Cl)cc2)C(C(=O)OCc2ccccc2)=C1C)C(C(=O)NCCCC)c1ccc(OCC(=O)OC)c(C(=O)OC)c1 (stereo unspecified) | 10.8 µM
31 | COc1ccc(/C=C(/C(=O)c2cccs2)N2C=CC=CC2=C(C#N)C#N)cc1 | 3.97 µM
32 | C(=N\Nc1nc2ccccc2s1)/c1ccccn1 | 0.696 µM
33 | CCOc1ccc2nc(NC3=NC(c4ccc(OC)cc4)CC(=O)N3)nc(C)c2c1 (stereo unspecified) | 12.1 µM
34 | CCCC[C@@H]1Cc2[nH][nH]c(=O)c2[C@H](c2ccc3ccccc3c2)O1 | 7.67 µM
35 | C[C@@H]1CN([C@@H](C)CO)C(=O)c2cccc(NS(=O)(=O)c3ccc(Cl)cc3)c2O[C@@H]1CN(C)Cc1ccc(C(=O)Nc2ccccc2N)cc1 | 8.47 µM
36 | N#C[C@H]1N[C@H](CO)[C@H]1c1ccc(C#Cc2ccc(F)cc2)cc1 | 20.2 µM
37 | CC1=NN(c2ccccc2)C(=O)/C1=C\C=C\c1ccccc1 | 3.99 µM
38 | Cc1ccc(S(=O)(=O)N(C)C[C@@H]2Oc3cc(C#Cc4ccncc4)ccc3S(=O)(=O)N([C@@H](C)CO)C[C@H]2C)cc1 | 21.1 µM
39 | CCCCc1c(-c2ccccc2OC)ncn1Cc1ccc(C(C)(C)C)cc1 | 11.8 µM
40 | C[C@H](CO)N1C[C@H](C)[C@@H](CN(C)Cc2ccc(C(F)(F)F)cc2)OCCCC[C@H](C)Oc2ccc(NS(=O)(=O)c3ccc(F)cc3)cc2C1=O | 13.4 µM
41 | CC(=O)ON=C1C=CC(=C(C#N)c2ccccc2)C=C1 | 5.49 µM
42 | CC12CCC3C(CCC4(O)CC(O)CCC34C=NO)C1(O)CCC2C1=COC(=O)C1 (stereo unspecified) | 0.251 µM
43 | O=C1NC(=O)N(c2ccccc2)C(=O)/C1=C\C=C\c1ccccc1 | 4.03 µM
44 | CCCCCCCCn1c2c(c(=N)c3c1CCC3)CCCC2 | 5.07 µM

Row | Compound | AC35
45 | CCN1C/C(=C/c2ccc(N3CCOCC3)cc2)C(=O)/C(=C/c2ccc(N3CCOCC3)cc2)C1 | 3.68 µM
46 | CN(c1ccc(NC(=O)CCc2c[nH]c3ccccc23)cc1)c1ccccn1 | 9.08 µM
47 | C[C@@H]1CN([C@H](C)CO)C(=O)c2cc(NC(=O)CCCCCC(=O)Nc3ccccc3N)ccc2O[C@@H]1CN(C)Cc1ccc(Cl)c(Cl)c1 | 9.95 µM
48 | CN1C(=O)c2cc(NC(=O)c3ccc(C(F)(F)F)cc3)ccc2OC[C@@H]2O[C@@H](CC(=O)NC3Cc4ccccc4C3)CC[C@H]21 | 4.43 µM
49 | C[C@H]1CN([C@@H](C)CO)C(=O)Cc2cc(NC(=O)CCCCCC(=O)Nc3ccccc3N)ccc2O[C@H]1CN(C)Cc1ccc(Cl)c(Cl)c1 | 10.2 µM
50 | O=C(c1cccc(S(=O)(=O)NCc2ccccc2)c1)N1CCN(c2ccccc2)CC1 | 20.8 µM
51 | Cc1ccccc1S(=O)(=O)N1CC[C@@H]2[C@@H](CO)Nc3ccc(-c4ccc(C#N)cc4)cc3[C@@H]21 | 4.47 µM
52 | Cc1cccc(/C=N/Nc2ccc3ccccc3n2)c1 | 18.9 µM
53 | CCCN1C(=O)/C(=C/c2nc3ccccc3c(=O)[nH]2)c2ccccc21 | 22 µM
54 | O=C(C[C@H]1C[C@H]2c3cc(NS(=O)(=O)c4ccc(F)cc4)ccc3O[C@H]2[C@H](CO)O1)NCc1ccc(Oc2ccccc2)cc1 | 12.6 µM
55 | C[C@H]1CN([C@@H](C)CO)S(=O)(=O)c2ccc(C#Cc3ccncc3)cc2O[C@@H]1CN(C)S(=O)(=O)c1ccccc1 | 16.5 µM
56 | Cc1cc(C)cc(N2C(=O)NC(=O)/C(=C\C=C\c3ccco3)C2=O)c1 | 3.84 µM
57 | CN(C)c1ccc(/C=N/Nc2nc3ccccc3o2)cc1 | 20.9 µM
58 | CCN(CC)c1ccc(C2NC(=O)c3ccccc3N2)cc1 (stereo unspecified) | 21.6 µM
59 | CC(C)N1C/C(=C/c2ccsc2)C(=O)/C(=C/c2ccsc2)C1 | 5.27 µM
60 | OC[C@H]1[C@@H](c2ccc(C#CC3CCCC3)cc2)[C@@H]2CN(CCC(F)(F)F)CCCCN12 | 7.53 µM
61 | C[C@@H]1CN([C@@H](C)CO)C(=O)c2cc(NC(=O)Nc3ccccc3)ccc2O[C@@H]1CN(C)Cc1ccc(C(=O)Nc2ccccc2N)cc1 | 7.56 µM
62 | CCOc1ccc(OCc2ccc(C(=O)NN=Cc3ccc[nH]3)cc2)cc1 | 0.667 µM
63 | COC(=O)Cc1[nH]n(-c2nc3ccccc3s2)c(=O)c1C(C)=Nc1ccc(OC)cc1 | 19.2 µM
64 | C[C@H](CO)N1C[C@H](C)[C@H](CN(C)Cc2ccc(Oc3ccccc3)cc2)Oc2ccc(NC(=O)Cn3cnnn3)cc2CC1=O | 8.16 µM
65 | C[C@@H]1CCCCO[C@H](CN(C)Cc2ccc(C(=O)Nc3ccccc3N)cc2)[C@@H](C)CN([C@H](C)CO)C(=O)c2cc(NS(=O)(=O)c3ccc(Cl)cc3)ccc2O1 | 14.3 µM
66 | COc1cccc(O)c1CN1CCC(C(=O)Nc2ccc(-c3cccc(C)c3)cc2)CC1 | 11 µM

Row | Compound | AC35
67 | N#C[C@H]1[C@H](c2ccc(-c3ccccc3F)cc2)[C@@H](CO)N1C(=O)c1ccccn1 | 14.5 µM
68 | Cc1ccc(/C=N/Nc2ccnc3cc(Cl)ccc23)c(C)c1 | 6.15 µM
69 | Cc1ccc(S(=O)(=O)Nc2ccc3c(c2)C(=O)N([C@H](C)CO)C[C@H](C)[C@@H](CN(C)Cc2ccc(C(F)(F)F)cc2)OCCCC[C@H](C)O3)cc1 | 12.8 µM
70 | Cc1c(N=Cc2cc(Br)cc(Br)c2O)cccc1C(=O)O | 20 µM
71 | O=C(CCCN1C(=O)/C(=C/c2ccccc2Cl)SC1=S)NNC(=O)c1ccc(Cl)cc1 | 23.9 µM
72 | C[C@H]1CN([C@@H](C)CO)C(=O)c2cc(N(C)C)ccc2O[C@H]1CN(C)Cc1ccc(C(=O)Nc2ccccc2N)cc1 | 8.84 µM
73 | C[C@@H]1O[C@@H](O[C@H]2C[C@@H](O)[C@]3(CO)[C@@H]4C(CC[C@]3(O)C2)[C@@]2(O)CC[C@H](C3COC(=O)C3)[C@@]2(C)C[C@H]4O)[C@H](O)[C@H](O)[C@H]1O (stereo partly specified) | 2.3 µM
74 | NC(Cc1ccc(C(F)(F)F)cc1)c1csc(NC(=O)Nc2ccccc2Cc2ccccc2)n1 (stereo unspecified) | 12.8 µM
75 | C[C@H](CO)N1C[C@H](C)[C@H](CN(C)Cc2ccc(C(=O)Nc3ccccc3N)cc2)Oc2ccc(N(C)C)cc2C1=O | 9.49 µM
76 | COc1ccc(Cn2cc3c(-c4ccc(F)cc4)nnc-3c3cc(OC)c(OC)cc32)cc1 | 4.86 µM
77 | C[C@H]1CN([C@@H](C)CO)S(=O)(=O)c2ccc(C#CC(C)(C)O)cc2O[C@@H]1CN(C)Cc1ccc(-c2ccccc2)cc1 | 0.656 µM
78 | O=C(C1CC1)N1C[C@@H]2N[C@H](C1)C2c1ccc(/C=C/c2ccccc2)cc1 (stereo partly specified) | 15.2 µM
79 | CN1C(=O)c2cc(NC(=O)c3ccc(Cl)cc3)ccc2OC[C@@H]2O[C@@H](CC(=O)NCc3cccc(F)c3)CC[C@H]21 | 5.42 µM
80 | C[C@@H]1CN([C@@H](C)CO)C(=O)c2cccc(N(C)C)c2O[C@@H]1CN(C)Cc1ccc(C(=O)Nc2ccccc2N)cc1 | 13.8 µM
81 | O=C(O)c1ccc(N/N=C/c2ccc3c(c2)OCO3)cc1 | 16.5 µM
82 | Cc1nn(-c2ccc(F)cc2)c2nc(N)c(C#N)c(-c3ccc(O)c(O)c3)c12 | 8.63 µM
83 | C[C@@H]1CN([C@@H](C)CO)C(=O)Cc2cc(NC(=O)C3CCCCC3)ccc2O[C@H]1CN(C)Cc1ccc(C(=O)Nc2ccccc2N)cc1 | 20.8 µM
84 | C[C@@H]1CN([C@H](C)CO)C(=O)c2cccc(N(C)C)c2O[C@@H]1CN(C)Cc1ccc(C(=O)Nc2ccccc2N)cc1 | 19.6 µM
85 | CC12CCC(O)CC1CCC1C2CCC2(C)C(C3=CC(=O)OC3)CCC12O (stereo unspecified) | 0.385 µM
86 | O=C(c1nnsc1S(=O)c1ccc(Cl)cc1)N1CCOCC1 (stereo unspecified) | 5.46 µM

From PubChem BioAssay AID720587 (Broad Institute, 2013)
